Tests used:
[1] = tested on: gastric epithelial cells (AGS); assay: Cytotoxicity, MTT reduction assay, AGS; assay type: cell-based; details: Homo sapiens, Epithelial cell, confluent cultures, 24 h, read-out: IC50 ± SD, AGS
Experimental: (§1) The human cell lines, MRC-5 normal lung fibroblasts (CCL-171), AGS gastric epithelial adenocarcinoma cells (CRL-1739) and HepG2 hepatocellular carcinoma cells (HB-8065) were obtained from the American Type Culture Collection (ATCC, Manasas, VA, USA). The cells were grown as monolayers in the following media: MRC-5 and HepG2 in MEM and AGS in Ham F-12. The MEM medium contained 2 mM L-glutamine, 1 mM sodium pyruvate and 1.5 g/L sodium bicarbonate. Ham F-12 was supplemented with 2 mM L-glutamine and 1.5 g/L sodium bicarbonate. Both media were supplemented with 10% heat inactivated fetal bovine serum, 100 IU/mL penicillin and 100 µg/mL streptomycin in a humidified incubator with 5% CO2 in air at 37 °C. For the experiments, cells were plated at a density of 25,000 cells/mL in 96-well plates. […] Compounds were first dissolved in DMSO and then in medium. The final concentration of DMSO in the test medium and controls was 1%. […] The cell viability for each compound was calculated comparing the cell viability of the untreated controls (100%) with the cell viability of the different concentrations of each compound. Each concentration was tested in quadruplicate together with the control and repeated three times in separate experiments. Cell viability was determined at the end of the incubation by means of the MTT reduction assay. Results were converted to percentage of controls, and the IC50 values were graphically obtained from the dose-response curves. Culture media, antibiotics and fetal bovine serum were obtained from Invitrogen Corp. (Waltham, MA, USA). Other reagents were purchased from Sigma Chemical Co. For the animal experiments all values are presented as median ± SEM. Drug-induced changes were statistically estimated using the Kruskall-Wallis test for comparison between groups and testing, and the Mann-Whitney test was used in the independent data for individual comparisons. The effects were considered significant if p ≤ 0.05. For cytotoxicity experiments, each concentration was tested in quadruplicate together with the control and repeated three times in different experiments. Results are expressed as IC50 values (µM) ± S.D.

[2] = tested on: acetic acid-induced writhing; parameters: method as in PMID 12767601; details: oral administration, ibuprofen at 40 mg/kg; cited from earlier work
[3] = tested on: lung fibroblasts (MRC-5); assay: Cytotoxicity, MTT reduction assay, MRC-5; assay type: cell-based; details: Homo sapiens, MRC5, confluent cultures, 24 h, read-out: IC50 ± SD, MRC-5
Experimental: as §1

[4] = tested on: xylene-induced ear edema; parameters: method as in PMID 16806590; details: mice; cited from earlier work
[5] = tested on: hepatocytes HepG2; assay: Cytotoxicity, MTT reduction assay, HepG2; assay type: cell-based; details: Homo sapiens, confluent cultures, 24 h, read-out: IC50 ± SD, HepG2
Experimental: as §1, with “Results were converted to percentage of controls, and the IC50 values were graphically obtained from the dose-response curves.” left out

[6] = tested on: mice ear edema induced by 12-O-tetradecanoylphorbol 13-acetate; assay: Topical anti-inflammatory effect, 12-O-tetradecanoylphorbol 13-acetate (TPA) induced ear edema in mice; assay type: in vivo; details: 1.4 µmol/mouse, 6 h after TPA, n = 8, read-out: % TATPA ± SEM (percent reduction of the ear edema, TPA)
Experimental: (§2) The inflammatory agent arachidonic acid (AA) and phorbol 12-myristate 13-acetate (TPA) were used to assess the anti-inflammatory effect/action mechanism of the starting compounds, new synthetic products and reference drugs. […] Adult male CF-1 mice (20–25 g), obtained from a stock maintained at the Chilean Public Health Institute, were used to assess the anti-inflammatory effect. All animals were housed in a climate- and light-controlled room with a 12 h light-dark cycle, fasted overnight before the day of the assays, with free access to water. The anti-inflammatory activity of each compound was evaluated in groups of 8 treated and 16 control mice. Due to ethical considerations, the number of animals was kept to a minimum and single dose experiments were carried out.
(§3) The pro-inflammatory agents TPA and AA, the reference drugs indomethacin and nimesulide were from Sigma. […] After 5 min, inflammation was induced by the application of 20 µL TPA or AA (5 mg/mL) in acetone. […] Control subjects only received TPA or AA. Both, the sample and the TPA or AA, were applied to the inner (10 µL) and outer (10 µL) surfaces of the right ear. The left ear only received acetone. Mice were sacrificed by cervical dislocation (after 6 h of TPA and 1 h AA), and a 6 mm diameter section of the right and left ears were cut and weighed. The weight differences between both ear sections correspond to the edema value. The percent topical anti-inflammatory activity (TA) was evaluated according to the following equation: (1) %TA=[ Wc−Ws/Wc]× 100 where Wc and Ws are the different median values of the weights of the right and the left ear sections of the control and the treated animals, respectively.
(§4) For the animal experiments all values are presented as median ± SEM. Drug-induced changes were statistically estimated using the Kruskall-Wallis test for comparison between groups and testing, and the Mann-Whitney test was used in the independent data for individual comparisons. The effects were considered significant if p ≤ 0.05. For cytotoxicity experiments, each concentration was tested in quadruplicate together with the control and repeated three times in different experiments. Results are expressed as IC50 values (µM) ± S.D.

[7] = tested on: mice ear edema induced by arachidonic acid; assay: Topical anti-inflammatory effect, arachidonic acid (AA) induced ear edema in mice; assay type: in vivo; details: 3.2 µmol/mouse; for inhibition in vivo at 3.2 µmol/animal: 1 h after AA, n = 8, read-out: % TAAA ± SEM (percent reduction of the ear edema, arachidonic acid)
Experimental: as §2, §3, §4

[8] = tested on: human lung fibroblasts (MRC-5), gastric epithelial cells (AGS) and hepatocytes HepG2; assay: Cytotoxicity, MTT reduction assay, summary over the three cell lines; assay type: cell-based; details: Homo sapiens; MRC-5, AGS and HepG2, 24 h, MTT; read-out: IC50 values, range over the three cell lines
Experimental: as §1

| Compound | IC50 [1] | Reduction of stretches [2] | IC50 [3] | Reduction of xylene-induced ear edema [4] | IC50 [5] | inhibition in vivo at 1.4 µmol/animal [6] | Activity in the AA model, in words [7] | inhibition in vivo at 3.2 µmol/animal [7] | IC50 [8] |
| --- | --- | --- | --- | --- | --- | --- | --- | --- | --- |
| CC(C)Cc1ccc(C(C)C(=O)O)cc1 (stereo not shown) [Compound 4, ibuprofen, reference compound] | > 1000 µM | 77.6% | > 1000 µM | 45.9% | > 1 mM | 56.2 ± 3.4% | inactive | 7.2 ± 5.5% | > 1000 µM |
| COc1ccc2cc([C@H](C)C(=O)Oc3cc4c(cc3C(C)C)CCC3C(C)(C)CCC[C@]43C)ccc2c1 (stereo partly shown) [Compound 7, Ferruginyl naproxenate] | 874 ± 49 µM | – | 945 ± 56 µM | – | > 1 mM | 26.8 ± 3.8% | – | 26.6 ± 4.1% | ≥ 874 µM |
| C=C1CCC2[C@](C)(CCC[C@]2(C)C(=O)O)[C@H]1CC[C@@H](C)CCOC(=O)[C@@H](C)c1ccc2cc(OC)ccc2c1 (stereo partly shown) [Compound 10, Imbricatol-15-yl naproxenate] | 29 ± 2 µM | – | 37 ± 2 µM | – | 0.069 ± 0.004 mM | 37.7 ± 3.3% | – | 16.3 ± 3.8% | 29 to 69 µM |
| C=C1CCC2[C@](C)(CCC[C@]2(C)C(=O)OC)[C@H]1CC[C@@H](C)CCOC(=O)[C@@H](C)c1ccc2cc(OC)ccc2c1 (stereo partly shown) [Compound 11, Imbricatol-15-yl naproxenate methyl ester] | 601 ± 25 µM | – | 907 ± 54 µM | – | > 1 mM | 42.7 ± 8.3% | – | 20 ± 9.4% | ≥ 601 µM |
| ibuprofen propyl glucopyranoside ester | – | – | – | 52.7% | – | – | – | – | – |

From PMC6272242, “Topical Anti-inflammatory Activity of New Hybrid Molecules of Terpenes and Synthetic Drugs” (Molecules, 2015)
